This is an account of results in paper PMC10252509, “Study on the In Silico Screening and Characterization, Inhibition Mechanisms, Zinc-Chelate Activity, and Stability of ACE-Inhibitory Peptides Identified in Naked Oat Bran Albumin Hydrolysates” (Foods, 2023).

Where no end group is shown, it is not given here.

One may read the IC50 as the concentration that inhibits the measured activity by half.

Series [1] has as its target T1, ACE (Oryctolagus cuniculus, UniProt P12822).
T1 construct: purchased Sigma (St. Louis, MO, USA)
T1 sequence (P12822 34-1310): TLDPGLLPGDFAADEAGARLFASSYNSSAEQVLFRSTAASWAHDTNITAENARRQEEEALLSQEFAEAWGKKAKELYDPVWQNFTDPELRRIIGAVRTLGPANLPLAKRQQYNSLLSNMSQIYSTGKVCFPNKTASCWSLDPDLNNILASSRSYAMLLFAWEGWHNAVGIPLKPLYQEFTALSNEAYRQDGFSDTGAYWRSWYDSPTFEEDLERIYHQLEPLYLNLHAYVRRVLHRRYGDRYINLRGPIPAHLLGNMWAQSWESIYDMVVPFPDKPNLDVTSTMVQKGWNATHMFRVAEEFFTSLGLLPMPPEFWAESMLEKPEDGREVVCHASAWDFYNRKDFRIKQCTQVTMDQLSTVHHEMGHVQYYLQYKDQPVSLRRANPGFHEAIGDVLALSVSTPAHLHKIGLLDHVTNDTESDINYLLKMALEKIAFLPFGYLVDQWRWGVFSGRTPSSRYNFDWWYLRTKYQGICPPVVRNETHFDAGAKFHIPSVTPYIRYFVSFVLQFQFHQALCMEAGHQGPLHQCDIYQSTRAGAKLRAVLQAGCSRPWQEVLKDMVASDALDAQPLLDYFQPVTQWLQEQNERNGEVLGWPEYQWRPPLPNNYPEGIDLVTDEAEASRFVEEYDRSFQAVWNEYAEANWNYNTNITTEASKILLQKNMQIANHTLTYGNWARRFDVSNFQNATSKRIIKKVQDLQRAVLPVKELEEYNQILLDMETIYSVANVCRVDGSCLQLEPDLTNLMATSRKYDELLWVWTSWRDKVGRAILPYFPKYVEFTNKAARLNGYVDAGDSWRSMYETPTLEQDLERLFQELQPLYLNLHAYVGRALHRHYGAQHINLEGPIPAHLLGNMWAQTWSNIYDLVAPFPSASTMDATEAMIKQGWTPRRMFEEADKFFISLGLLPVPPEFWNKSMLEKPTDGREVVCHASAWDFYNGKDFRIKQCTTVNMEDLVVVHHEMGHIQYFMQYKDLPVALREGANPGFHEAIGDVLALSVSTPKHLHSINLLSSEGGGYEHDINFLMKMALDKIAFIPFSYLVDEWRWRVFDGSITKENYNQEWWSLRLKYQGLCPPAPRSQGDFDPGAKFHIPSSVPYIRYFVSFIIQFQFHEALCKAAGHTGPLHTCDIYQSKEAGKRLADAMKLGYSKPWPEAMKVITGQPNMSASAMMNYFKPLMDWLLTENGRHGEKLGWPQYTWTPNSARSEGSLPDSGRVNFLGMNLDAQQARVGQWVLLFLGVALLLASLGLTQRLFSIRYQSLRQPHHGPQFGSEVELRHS
Put plainly: ACE inhibition capacity (HHL substrate, hippuric acid at 228 nm). As to conditions: synthesized peptide; ACE 25 mU, HHL 8.3 mmol/L, 37 °C, 60 min, absorbance 228 nm; from regression of inhibition vs concentration; n at least 3; read-out: ACE-inhibitory activity (IC50). The series is classed as biochemical. As to the method:
Briefly, ACE (25 mU) was pre-incubated at 37 °C for 10 min. Then, ACE (75 µL), 225 µL of HHL (8.3 mmol/L), and peptide solution (75 µL) were mixed and stirred at 75 r/min and 37 °C for 60 min [28]. The reaction was stopped through the addition of 0.375 mL of HCl (1 mol/L). Next, 2.1 mL of ethyl acetate was added to extract the produced hippuric acid. After centrifugation at 14,000× g for 150 s, 1 mL of the upper solution (ethyl acetate extraction) was transferred into a glass test tube and heated at 120 °C for 32 min. Then, deionized water (1 mL) was added and determined at 228 nm. The control group was subjected to the same procedures but without samples. The inhibition ability of the samples toward ACE was defined as the percentage of the difference in absorbance at 228 nm between the sample and control compared to the absorbance of the control at 228 nm. The concentration of peptides needed to inhibit half of ACE activity was defined as IC50.

The nature of series [2]: Zinc solubility of peptide-Zn complexes during simulated gastrointestinal digestion. Particulars: intestinal phase, from 120 to 240 min; PAR method.
Series [3] can be described thus: Zn-chelating ability (4-(2-Pyridinazo)-resorcinol colorimetric method). Format: physicochemical. Particulars: 350 μg sample, zinc sulfate 0.25 mmol/L, HEPES-KOH, DTT, 37 °C, 12 min; PAR method, 500 nm; reduction of zinc ions per mass of sample; mean ± SD, n at least 3. As to the method: NOBAH peptides (350 μg), 0.5 mL zinc sulfate solution (0.25 mmol/L), 0.5 mL DTT (8 mmol/L), 1 mL HEPES-KOH buffer (100 μmol/L), and 8 mL dH2O were mixed thoroughly. After stirring at 37 °C and 175 r/min for 12 min, 1 mL of reaction solution was sucked out and used for zinc concentration determination using the 4-(2-Pyridinazo)-resorcinol method. The standard regression curve of zinc concentration (x, μg/mL) with the absorbance at 500 nm (y) was y = 0.0901n(x) + 0.1012, R^2 = 0.9802 [27]. The zinc chelation rate of the sample was defined as the reduction of zinc ions in the reaction solution per mass of the sample (mg/g).
Amino acid sequence identification was conducted on a Q Exactive hybrid quadrupole orbitrap mass spectrometer (Thermo Fisher, Bremen, Germany) according to the description of Li et al.. Peak-Studio-7.5-De-Novo™ software (Bioinformatics Solutions, Inc., Waterloo, ON, Canada) was employed to analyze data from the mass spectrometer. The National Center for Biotechnology Information Database (Bethesda, MD, USA) was used for the verification of the obtained sequences. The PAR colorimetric method was employed to measure the Zn-chelating ability of the obtained sequences. Potential antihypertensive effects were predicted using the database AHTPDB [29]. […] Moreover, the physicochemical characteristics of the obtained peptides were analyzed with the database AHTPDB.

The subject of series [4] is ACE. More on the design: method as in 2 sources, one per row (each row's own in cited_ref): ref [24] = [24]; PMID 32220144; doi:10.1111/1750-3841.15115; 24. Zheng Y. Wang X. Zhuang Y. Li Y. Shi P.Q. Tian H. Li X.T. Chen X. Isolation of novel ACE-inhibitory peptide from naked oat globulin hydrolysates in silico approach: Molecular docking, in vivo anti ||| ref [4],[35] = [4]; doi:10.1016/j.lwt.2022.114008; 4. Renjuan L. Xiuli Z. Liping S. Yongliang Z. Identification, in silico screening, and molecular docking of novel ACE inhibitory peptides isolated from the edible symbiot Boletus griseus-Hypomyces chr || [35]; doi:10.1016/j.lwt.2022.113196; 35. Wei G. Zhao Q. Wang D. Fan Y. Shi Y. Huang A. Novel ACE inhibitory, antioxidant and α-glucosidase inhibitory peptides identified from fermented rubing cheese through peptidomic and molecular docki. Particulars: literature comparison; ref [4],[35]; read-out: ACE inhibition IC50; cited from earlier work.

Consider QYVPF [QYVPF, Gln-Tyr-Val-Pro-Phe], for which the IC50 at ACE [1] turned out to be 243 µM. In the case of `O=C([O-])[C@H](O)[C@@H](O)[C@H](O)[C@H](O)CO.O=C([O-])[C@H](O)[C@@H](O)[C@H](O)[C@H](O)CO.[Zn+2]` [zinc gluconate, Zinc gluconate], the “Zinc solubility compared with zinc sulfate” value in series [2] is “higher zinc solubility than that of zinc sulfate”.

“GTTGGMGT [peptide identified in NOBAH-6-D]” gave a Zinc chelating capacity in series [3] of 3.36 ± 0.16 e mg/g. As to “QPHQPL [peptide identified in rubing cheese]”, the concentration for half-maximal inhibition (IC50) in the series with ACE [4] is 464 µM. With LFRPE, in the series on ACE [4], the IC50 was 11.3 µM.

Turning to GYHGH [GYHGH, Gly-Tyr-His-Gly-His], the IC50 at ACE [1] is 322 µM.
